Article PMC8838585, “Development and Validation of a Novel HPLC Method to Analyse Metabolic Reaction Products Catalysed by the CYP3A2 Isoform: In Vitro Inhibition of CYP3A2 Enzyme Activity by Aspirin (Drugs Often Used Together in COVID-19 Treatment)” (Molecules, 2022)
Entries after “also recorded” stand apart in the source; their conditions may differ.

Tests used:
CYP3A2 = target: T1, CYP3A2 (Rattus norvegicus, UniProt P05183); assay: Inhibition of dexamethasone 6β-hydroxylation (CYP3A2 activity) by aspirin in rat liver microsomes, HPLC; type: in vitro ADME; conditions: for Clint: Vmax/Km; for Vmax: n = 3
T1 construct: tissue Merck; host or cells: pooled liver microsomes from male Sprague Dawley rats
T1 sequence (P05183 1-504): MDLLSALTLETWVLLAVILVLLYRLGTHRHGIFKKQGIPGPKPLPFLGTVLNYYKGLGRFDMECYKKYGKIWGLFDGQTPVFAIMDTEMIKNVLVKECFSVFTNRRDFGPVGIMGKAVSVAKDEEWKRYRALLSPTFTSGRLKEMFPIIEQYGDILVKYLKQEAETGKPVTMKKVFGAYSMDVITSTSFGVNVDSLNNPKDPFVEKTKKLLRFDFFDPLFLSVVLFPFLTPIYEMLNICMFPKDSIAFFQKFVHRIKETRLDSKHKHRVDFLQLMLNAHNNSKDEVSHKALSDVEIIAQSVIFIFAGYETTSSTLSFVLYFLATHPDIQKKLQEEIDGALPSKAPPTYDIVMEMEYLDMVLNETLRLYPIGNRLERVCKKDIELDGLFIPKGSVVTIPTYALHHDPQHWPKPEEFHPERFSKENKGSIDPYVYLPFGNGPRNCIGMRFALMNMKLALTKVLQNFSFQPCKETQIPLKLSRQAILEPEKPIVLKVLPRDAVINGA
Experimental: Assay development and validation were carried out using a LC-2010A HT Module HPLC system (Shimadzu, Toyko, Japan). […] The chromatographic separation was performed at 25 °C and at a flow rate of 0.6 mL/min. A 10 µL solution volume was injected for HPLC analysis, and all the components were detected at the 243 nm wavelength. Table 11 provides information concerning efficiency (N), where N = 5.54 × (tR/W½) and W½ = width at half peak height; plate height (H), where H(cm) = column length/N; asymmetry factor (AsF), where AsF = B/A, and A is the distance from the leading edge of the peak to the midpoint of the peak measured at 10% of peak height, and B is the distance from the midpoint of the peak to the trailing edge of the peak measured at 10% of the peak height; and resolution (Rs), where Rs = 2∆tR/0.5(W1 + W2), and W is the width at the peak base.
Ice-cold-grade acetonitrile containing 15 µM 4-hydroxyoctanophenone (as an internal standard) was added to terminate the reaction. […] The polar extracts were evaporated to dryness, and the residues were dissolved in the mobile phase (70% acetonitrile and 30% water, v/v) and made up to 1000 µL in volume. An amount of 10 µL of each sample was injected into the HPLC instrument for analysis.
Data were analysed using Microsoft Excel 2010 software for validation and the kinetic parameters. All results are shown as mean ± S.D. The least-square regression analysis was performed to calculate the concentration of the metabolite produced by the CYP reaction. Secondary Lineweaver–Burk plots and Michaelis–Menten plots were plotted to find kinetic parameters such as Ki, Vmax, Km, Clint, and α^,. Inhibition was assumed to be competitive based on the obtained data and based on a visual inspection of the Lineweaver–Burk plot. […] Km values were used to calculate the percentage of inhibition.

[1] = Solution stability of working standards at ambient temperature, intraday and interday, HPLC; type: physicochemical; conditions: for Solution stability: intraday and interday analysis
Experimental: Stability samples were analyzed in triplicate.
Experiments were performed in triplicate, and the results are summarized below in Table 8.

[2] = substrate: C[C@@H]1C[C@H]2[C@@H]3CCC4=CC(=O)C=C[C@]4(C)[C@@]3(F)[C@@H](O)C[C@]2(C)[C@@]1(O)C(=O)CO; assay: cells, lysate or membranes named; conditions: other: 0 µM aspirin (no inhibitor), rat liver microsomes 0.5 mg/mL, n = 3; pH 7.4; 37.0 °C
Experimental: Data were analysed using Microsoft Excel 2010 software for validation and the kinetic parameters. All results are shown as mean ± S.D. The least-square regression analysis was performed to calculate the concentration of the metabolite produced by the CYP reaction. Secondary Lineweaver–Burk plots and Michaelis–Menten plots were plotted to find kinetic parameters such as Ki, Vmax, Km, Clint, and α^,. […] Km values were used to calculate the percentage of inhibition.

[3] = male, rat, liver microsomes, pH 7.4, probe dexamethasone (6β-hydroxylation), 10, 20, 30, 40 and 50 µM

Molecule: CC(=O)Oc1ccccc1C(=O)O [Aspirin, acetylsalicylic acid]
- IC50 (CYP3A2): 191 µM
- á (CYP3A2; 50 µM aspirin): 1.03 ± 0.01
- á (CYP3A2; 100 µM aspirin): 1.02 ± 0.06
- á (CYP3A2; 200 µM aspirin): 1.04 ± 0.01
- Mode of inhibition of CYP3A2 (CYP3A2; Lineweaver-Burk plot, rat liver microsomes): competitively inhibits; also recorded: competitive inhibitor
- Clint (CYP3A2; with 50 µM aspirin): 0.0005 ± 4.00 × 10^−6 µM^−2∙min^−1
- Clint (CYP3A2; with 100 µM aspirin): 0.0005 ± 5.00 × 10^−5 µM^−2∙min^−1
- Clint (CYP3A2; with 200 µM aspirin): 0.0004 ± 1.00 × 10^−5 µM^−2∙min^−1
- Alpha prime (α') values (CYP3A2; aspirin 50, 100 and 200 µM): greater than 1.0
- inhibition at 40 min, 50 µM (CYP3A2; [3]): 12.4 ± 1.2%
- inhibition at 40 min, 100 µM (CYP3A2; [3]): 23.3 ± 3.3%
- inhibition at 40 min, 200 µM (CYP3A2; [3]): 53.6 ± 1.76%
- Ki (CYP3A2; read-out: Ki (inhibition constant)): 95.5 µM
- Strength of inhibition of CYP3A2 isoform activity (CYP3A2; weak if IC50 more than 50 µM): weak inhibitory effect
- Vmax (CYP3A2; with 50 µM aspirin): 0.0123 ± 1.15 × 10^−4 µM^−1∙min^−1
- Vmax (CYP3A2; with 100 µM aspirin): 0.0127 ± 7.94 × 10^−4 µM^−1∙min^−1
- Vmax (CYP3A2; with 200 µM aspirin): 0.0123 ± 1.73 × 10^−4 µM^−1∙min^−1

Molecule: C[C@@H]1C[C@H]2[C@@H]3CCC4=CC(=O)C=C[C@]4(C)[C@@]3(F)[C@@H](O)C[C@]2(C)[C@@]1(O)C(=O)CO [Dexamethasone]
- % Recovery ([1]; Interday 1, 40 µM): 80.04%
- % Recovery ([1]; Interday 1, 110 µM): 85.81%
- % Recovery ([1]; Interday 1, 185 µM): 98.26%
- % Recovery ([1]; Interday 2, 40 µM): 87.31%
- % Recovery ([1]; Interday 2, 110 µM): 91.30%
- % Recovery ([1]; Interday 2, 185 µM): 104.78%
- % Recovery ([1]; Interday 3, 40 µM): 85.29%
- % Recovery ([1]; Interday 3, 110 µM): 82.36%
- % Recovery ([1]; Interday 3, 185 µM): 101.20%
- % Recovery ([1]; intraday 0 h, 40 µM): 88.51%
- % Recovery ([1]; intraday 0 h, 110 µM): 80.58%
- % Recovery ([1]; intraday 0 h, 185 µM): 95.66%
- % Recovery ([1]; intraday 5 h, 40 µM): 80.50%
- % Recovery ([1]; intraday 5 h, 110 µM): 84.03%
- % Recovery ([1]; intraday 5 h, 185 µM): 109.49%
- % Recovery ([1]; intraday 10 h, 40 µM): 80.80%
- % Recovery ([1]; intraday 10 h, 110 µM): 84.43%
- % Recovery ([1]; intraday 10 h, 185 µM): 110.03%
- Solution stability [1]: stable for up to three days

Molecule: C[C@@H]1C[C@H]2[C@@H]3C[C@@H](O)C4=CC(=O)C=C[C@]4(C)[C@@]3(F)[C@@H](O)C[C@]2(C)[C@@]1(O)C(=O)CO [6β-hydroxydexamethasone, 6β-Hydroxydexamethasone]
- % Recovery ([1]; Interday 1, 0.3 µM): 89.49%
- % Recovery ([1]; Interday 1, 0.5 µM): 92.64%
- % Recovery ([1]; Interday 1, 0.85 µM): 84.06%
- % Recovery ([1]; Interday 2, 0.3 µM): 105.46%
- % Recovery ([1]; Interday 2, 0.5 µM): 94.15%
- % Recovery ([1]; Interday 2, 0.85 µM): 81.57%
- % Recovery ([1]; Interday 3, 0.3 µM): 106.90%
- % Recovery ([1]; Interday 3, 0.5 µM): 92.10%
- % Recovery ([1]; Interday 3, 0.85 µM): 80.51%
- % Recovery ([1]; intraday 0 h, 0.3 µM): 98.18%
- % Recovery ([1]; intraday 0 h, 0.5 µM): 94.82%
- % Recovery ([1]; intraday 0 h, 0.85 µM): 99.34%
- % Recovery ([1]; intraday 5 h, 0.3 µM): 97.22%
- % Recovery ([1]; intraday 5 h, 0.5 µM): 87.58%
- % Recovery ([1]; intraday 5 h, 0.85 µM): 90.45%
- % Recovery ([1]; intraday 10 h, 0.3 µM): 88.89%
- % Recovery ([1]; intraday 10 h, 0.5 µM): 87.75%
- % Recovery ([1]; intraday 10 h, 0.85 µM): 92.98%
- Solution stability [1]: stable

B1: CYP3A2 (Rattus norvegicus) (protein)
chain: T1 sequence (P05183 1-504)
- Km [2]: 21.23 ± 0.51 µM
